Data on one molecule can be found in article PMC9459812, “Evaluation of Activity of Sesquiterpene Lactones and Chicory Extracts as Acetylcholinesterase Inhibitors Assayed in Calorimetric and Docking Simulation Studies” (Nutrients, 2022).

For test [1], the target named is T1, acetylcholinesterase (AChE) (Electrophorus electricus, UniProt O42275). Kind of test: biochemical. Conditions: ITC, n = 9, ± SD.
Test [2] deals with T1, acetylcholinesterase (AChE). The test can be described thus: biochemical. The conditions noted are these: ITC, 36.6 °C, single binding site mode, n = 9, ± SD; read-out: KD (dissociation constant).

The Ki is a measure of affinity in units of concentration, obtained from inhibition or displacement. As usually defined, the IC50 is the concentration at which inhibition is half-maximal. Lower therefore signals inhibition by little substance. In general, Kd refers to the constant that tells how readily two partners part at equilibrium.

T1 sequence (O42275 24-633): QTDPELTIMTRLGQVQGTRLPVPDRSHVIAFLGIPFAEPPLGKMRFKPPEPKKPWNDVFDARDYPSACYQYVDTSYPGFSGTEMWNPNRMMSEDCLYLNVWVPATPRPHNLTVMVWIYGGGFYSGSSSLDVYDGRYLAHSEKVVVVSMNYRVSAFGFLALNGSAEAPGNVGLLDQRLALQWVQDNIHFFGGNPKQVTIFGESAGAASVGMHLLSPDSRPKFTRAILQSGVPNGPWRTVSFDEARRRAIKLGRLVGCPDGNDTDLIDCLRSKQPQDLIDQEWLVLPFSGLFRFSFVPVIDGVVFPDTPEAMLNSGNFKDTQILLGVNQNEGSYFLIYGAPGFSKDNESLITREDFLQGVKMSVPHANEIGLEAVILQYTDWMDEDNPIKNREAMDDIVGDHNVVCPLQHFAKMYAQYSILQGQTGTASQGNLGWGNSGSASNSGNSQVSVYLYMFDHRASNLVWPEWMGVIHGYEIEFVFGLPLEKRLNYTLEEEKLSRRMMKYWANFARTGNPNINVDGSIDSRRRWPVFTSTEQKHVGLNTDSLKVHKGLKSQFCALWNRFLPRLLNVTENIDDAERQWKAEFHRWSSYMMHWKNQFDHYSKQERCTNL

Take `C=C1C(=O)O[C@@H]2[C@H]3C(CO)=CC(=O)C3=C(C)C[C@H](OC(=O)Cc3ccc(O)cc3)[C@@H]12` [Lactucopicrin, lactucopicrin]: the Ki in test [1] (dissociation constant of the enzyme–inhibitor complex, read-out: KI (inhibition constant)) worked out at 1.32 ± 0.11 µM. Besides, half-maximal inhibition in test [1] (inhibitor concentration causing 50% decrease in enzyme activity (converted to lactucine for extracts)) (IC50) was put at 1.74 ± 0.11 µM. The equilibrium dissociation constant (Kd) in test [2] amounted to 169 ± 0.12 µM.
